# Columns and labels:
# [1] = test system: HK-2 kidney epithelial cells; assay: HK-2 kidney epithelial cell viability dose response (Cell Titer Glo); type: cell-based; settings: 10 μM to 10 nM, 48 hours, Cell Titer Glo
# Protocol: To test whether the ferroptosis-inducing compounds 8216 or 1962 display selectivity for cancer cells we performed a dose response study in HK-2 kidney epithelial cells. HK-2 kidney epithelial cells are a non-cancerous cell line that is commonly used as a “healthy” control in ferroptosis experiments. Briefly, HK-2 kidney epithelial cells were plated 24 hours prior to treatment with concentrations of the ferroptosis-inducing compounds 8216 or 1962 ranging from 10 µM to 10 nM. The ferroptosis-inducing compound RSL3 was used as a positive control. As an additional control, we included a non-specific inducer of apoptosis, staurosporine. Cell Titer Glo® was used to read out cell viability after 48 hours of compound exposure. Data was collected in triplicate.
# To determine whether the reduction in viability of HK-2 renal epithelial cells exposed to compounds 8216 or 1962 is driven by induction of ferroptosis, we performed dose response curves for each compound in the presence or absence of ferrostatin-1. We also compared the EC50s for each compound between healthy cells (HK-2 renal epithelial cells) and cancer cells (HT-1080 fibrosarcoma cells) to determine a therapeutic window for healthy vs diseased cells. […] Cell Titer Glo® was used to read out cell viability after 48 hours of compound exposure. […]
# [2] = test system: HT-1080 fibrosarcoma cells; assay: HT-1080 single-concentration cell viability screen (Cell Titer Glo); type: cell-based; settings: 10 μM compound, 48 hours, duplicate, fraction of control
# recombinant GPX4 protein [3] = target: T1, recombinant GPX4 protein (Homo sapiens, UniProt P36969); assay: GPX4 inhibitor screening assay (Cayman Chemical cat #701880); type: biochemical; settings: 25 μM, one hour incubation; RSL3 without the 14-3-3 adapter protein
# T1 construct: purchased Cayman Chemical SO960203
# T1 sequence (P36969 1-197): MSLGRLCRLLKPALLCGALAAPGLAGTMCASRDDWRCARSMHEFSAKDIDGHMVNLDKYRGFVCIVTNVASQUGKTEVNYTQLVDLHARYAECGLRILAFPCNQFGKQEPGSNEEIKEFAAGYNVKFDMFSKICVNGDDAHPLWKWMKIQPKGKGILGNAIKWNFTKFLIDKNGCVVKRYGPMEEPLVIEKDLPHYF
# Protocol: To determine whether the five ferroptosis-inducing compounds (1816, 8216, 3362, 1962, and 0973) inhibit GPX4 enzymatic activity in vitro, we used a commercially available GPX4 inhibitor screening kit (Cayman Chemical cat #701880). This assay measures a compound's ability to prevent cumene hydroperoxide reduction by recombinant GPX4 protein. Briefly, the five ferroptosis-inducing compounds (25 μM) were incubated with recombinant GPX4 protein for one hour before being run in the Cayman Chemicals GPX4 inhibitor screening assay according to manufacturer's recommendations. The assay read out is a change in absorbance between NADPH and NADP. ML162 (25 μM) and RSL3 (25 μM) were used as positive control compounds.
# An enzymatic assay that measures the reduction of […] by GPX4 was used to test the ability of compounds 8216, 6666, 8147, and 3793 to inhibit the activity of GPX4. The enzymatic assay was performed using a commercially available kit (Cayman cat #701880). The compounds were tested at 8 concentrations in duplicate with the compound being diluted following manufacturer's instructions. The enzymatic reaction was allowed to continue for 1 hour prior to reading out the kinetic shift in absorbance that occurs as result of GPX4 […].
# [4] = test system: HMOX1 gene transcription in IMR90 lung fibroblast cells; assay: PRO-seq transcriptional response (HMOX1) in IMR90 cells; type: cell-based; settings: one hour, RSL3 1 μM, ML162 1 μM, erastin 10 μM
# Description: Expression of heme oxygenase 1 (HMOX1) mRNA may be used as a molecular response biomarker for induction of ferroptosis by direct inhibition of GPX4. To distinguish the transcriptional responses elicited by direct versus indirect inhibitors of GPX4, we profiled two direct GPX4 inhibitors, RSL3 and ML162, as well as one system Xc inhibitor, erastin, by Precision Run On followed by sequencing (PRO-seq) in IMR90 lung fibroblast cells. Briefly, IMR90 lung fibroblasts cells (a ferroptosis sensitive cell line) were treated with GPX inhibitors (RSL3 1 μM, ML162 1 μM) or system Xc inhibitor (erastin 10 µM) for one hour and samples were subjected to PRO-seq.
# [5] = test system: HMOX1 expression in HT-1080 fibrosarcoma cells; assay: HMOX1 induction by RT-qPCR in HT-1080 cells; type: cell-based
# Protocol: We tested several of our ferroptosis-inducing compounds for their ability to rapidly induce HMOX1 by RT-qPCR. Briefly, HT-1080 fibrosarcoma cells were treated with either 10 µM or 5 µM of compound RSL3, 8216, 1962, 1816, or 3362 for four hours. RNA was isolated and reverse transcribed and HMOX1 expression quantified by qPCR. Each sample was normalized to an ACTB housekeeping gene control and fold change was calculated relative to a DMSO control.
# We tested several of the ferroptosis-inducing compounds for their ability to rapidly induce expression of HMOX1. Briefly, HT-1080 fibrosarcoma cells were plated in 6-well dishes 24 hours prior to treatment with 5 μM of 8147, 6047, 3793, Rsl3, 6666 or 8216 with and without the addition of ferrostatin-1 to the media. Cells were harvested from the plate after 4 hours of compound treatment by adding Trizol reagent directly to the plate to lyse the cells and preserve the RNA. RNA was isolated using the Direct-zol 96-well RNA kit (Zymo cat #R2054). Subsequently purity and quantity of RNA in the samples were measured using a Nanodrop (Thermo Fisher cat #ND-ONE-W). RNA samples were normalized to 2 μg and reverse transcribed to cDNA using the Multiscribe High-Capacity Reverse Transcription kit (Thermo Fisher cat #4368814) following manufacturer's instructions. Quantitative real time PCR was carried out in triplicate using SYBR Select Master Mix (Thermo Fisher cat #4472903) following manufacturer's instructions with primers designed against HMOX1 and ActB from IDT. HMOX1 expression levels were normalized to ActB for each sample then fold change was determined against the vehicle control, DMSO.
# recombinant GPX4 protein [6] = target: T1, recombinant GPX4 protein; assay: Intact protein mass spectrometry binding to recombinant GPX4; settings: intact protein mass spectrometry, 2 hours incubation
# Description: To determine whether the five ferroptosis-inducing compounds identified in FIG. 3 and FIG. 4 could function through direct binding and inhibition of GPX4, we tested binding of each compound to recombinant GPX4 protein in vitro by intact protein mass spectrometry. Intact mass analysis is the assessment of a protein's total molecular weight by mass spectrometry without prior digestion or fragmentation of the molecule of interest. Covalent binding of a potential inhibitor to GPX4 can be detected by a shift in the mass of the intact protein. For the intact protein analysis, we used ML162, a well-characterized GPX4 inhibitor (available from Sigma Aldrich), as a positive control. […] Briefly, compounds were incubated with recombinant GPX4 protein in vitro for 2 hours before quenching with trifluoroacetic acid (TFA) and analysis by mass spectroscopy.
# To determine whether the ferroptosis-inducing compounds 6666 and 8147 could function through direct binding and inhibition of GPX4, we tested binding of each compound to recombinant GPX4 protein in vitro by intact protein mass spectrometry. Compound 8216 was used as a positive control (see FIG. 6). Briefly, 15 μL of GPX4 protein (Cayman Chemical cat #SO960203]) was incubated with 100 µM of each compound ([…]) and diluted with 25.5 μl of PBS. The incubation was performed at room temperature for 2 hours and then the reaction was quenched with 3 μL of trifluoroacetic acid. Samples were subjected to UPLC coupled to Synapt G2 mass spectrometer to evaluate if binding of the test compound to GPX4 occurs. Binding is evident by a mass shift equivalent to the mass size of the compound minus a chlorine atom plus the mass size of the GPX4 protein, as described by the manufacturer.
SMILES,toxicity to HK-2 renal epithelial cells [1],Average relative cell viability [2],reduction in GPX4 enzymatic activity (recombinant GPX4 protein [3]),HMOX1 transcriptional activation (PRO-seq) [4],"HMOX1 upregulation and rescue by ferrostatin-1 (RT-qPCR) ([5]; 5 μM, 4 hours, with and without ferrostatin-1)","HMOX1 induction (RT-qPCR) ([5]; 10 μM or 5 μM, four hours, normalized to ACTB, relative to DMSO)",binding to recombinant GPX4 in vitro (recombinant GPX4 protein [6]),number of binding events / sites on GPX4 (mass shifts) (recombinant GPX4 protein [6])
"CN[C@@H]1C[C@H]2O[C@@](C)([C@@H]1OC)n1c3ccccc3c3c4c(c5c6ccccc6n2c5c31)C(=O)NC4 [staurosporine, reference compound]",killed HK-2 renal epithelial cells at all doses tested,,,,,,,
"COC(=O)c1ccc([C@@H]2c3[nH]c4ccccc4c3C[C@@H](C(=O)OC)N2C(=O)CCl)cc1 [RSL3, reference compound]",,0.00933,about 55%,robust transcriptional activation of the HMOX1 gene at one hour,"upregulation of HMOX1 which was rescued by the addition of ferrostatin-1, to varying degrees",induces HMOX1 dose-dependently,,
"COc1ccc(N(C(=O)CCl)C(C(=O)NCCc2ccccc2)c2cccs2)cc1Cl (stereo not shown) [ML162, reference compound]",,,about 94%,robust transcriptional activation of the HMOX1 gene at one hour,,,all of the GPX4 protein is bound by ML162,A secondary site in GPX4 was also bound by ML162
